According to US8324198B1, “Monocarbams” (Pfizer Inc., priority 2008, dated 2012):
≈ marks a conversion by molar mass, not a printed value. Counter-ions that a name gives are not always drawn.

Tests used:
[1] = test system: Pseudomonas aeruginosa 1045-06; assay: In vitro MIC, Pseudomonas aeruginosa 1045-06; assay type: cell-based; details: strain 1045-06, resistant to carbapenems, aminoglycosides and fluoroquinolones
From the text: (§1) Culture collection strain 1045-06 is resistant to several classes of known antimicrobial agents including carbapenems, aminoglycosides and fluoroquinolones, while strains 1000-02 and 3167 are resistant to cephalosporins. Strain PA0200 is a derivative of laboratory strain PAO1 that lacks a functional MexAB-oprM efflux pump.

P. aeruginosa 1091-05 [2] = assay: In vitro MIC, P. aeruginosa 1091-05; assay type: cell-based; details: for MIC: Pseudomonas aeruginosa, 109105, read-out: Pa 1091-05 MIC
[3] = test system: Acinetobacter baumanii 3167; assay: In vitro MIC, Acinetobacter baumanii 3167; assay type: cell-based; details: strain 3167, resistant to cephalosporins
From the text: as §1

P. aeruginosa 1091-05 [4] = assay: Murine respiratory tract infection model against P. aeruginosa 1091-05 (PD50); assay type: in vivo; details: for RTI PD50 vs. Pa 1091-05 (95% confidence interval): immunosuppressed C3H/HeN mice, intranasal challenge, subcutaneous BID for two days from 4 h post-challenge, lethality over ten days; for Efficacy relative to Comparative Example A (PD50, 95% confidence intervals): murine respiratory tract infection model, P. aeruginosa 1091-05
Protocol: For this model, C3H/HeN mice were immunosuppressed with cyclophosphamide given orally at 150 mg/kg and 100 mg/kg on days −4 and −1 relative to challenge, respectively. Mice were anesthetized with isoflurane (5% in oxygen) and the bacterial inoculum was given to each mouse via intranasal instillation in a 40 μL volume (˜2.8×10^3 cfu per mouse). Mice were dosed with compound administered via subcutaneous injection beginning at four hours post-challenge, and continuing for two days of BID therapy.
PD50 is a measure of the ability of a compound to protect mice from a lethal infection.

[5] = test system: Klebsiella pneumoniae 1000-02; assay: In vitro MIC, Klebsiella pneumoniae 1000-02; assay type: cell-based; details: strain 1000-02, resistant to cephalosporins
From the text: as §1

[6] = test system: Pseudomonas aeruginosa PA0200 MexAB-oprM KO; assay: In vitro MIC, Pseudomonas aeruginosa PA0200 MexAB-oprM KO; assay type: cell-based; details: PAO1, read-out: MIC Pseudomonas aeruginosa PA0200 MexAB-oprM KO
From the text: as §1

| Compound | MIC Pseudomonas aeruginosa 1045-06 [1] [µg/mL] | Pa 1091-05 MIC (P. aeruginosa 1091-05 [2]) [µg/mL] | MIC Acinetobacter baumanii 3167 [3] [µg/mL] | RTI PD50 vs. Pa 1091-05 (95% confidence interval) (P. aeruginosa 1091-05 [4]; disodium salt) | Efficacy relative to Comparative Example A (PD50, 95% confidence intervals) (P. aeruginosa 1091-05 [4]) | MIC Klebsiella pneumoniae 1000-02 [5] [µg/mL] | MIC (P. aeruginosa 1091-05 [2]) [µg/mL] | RTI PD50 vs. Pa 1091-05 (95% confidence interval) (P. aeruginosa 1091-05 [4]) [mg/kg] | MIC [6] [µg/mL] |
| --- | --- | --- | --- | --- | --- | --- | --- | --- | --- |
| C[C@@H](O)Cn1c(-c2cc(=O)c(O)c[nH]2)nn(S(=O)(=O)NC(=O)N2C[C@H](NC(=O)/C(=N\OC(C)(C)C(=O)[O-])c3csc(N)n3)C2=O)c1=O.C[C@@H](O)Cn1c(-c2cc(=O)c(O)c[nH]2)nn(S(=O)(=O)NC(=O)N2C[C@H](NC(=O)/C(=N\OC(C)(C)C(=O)[O-])c3csc(N)n3)C2=O)c1=O.[Na+].[Na+] [Example 6] | 250 | 125 | 1000 | 32.7 (23.7-42.0) mg/kg | significantly more efficacious relative to Comparative Example A | 500 | – | – | – |
| C[C@H](O)Cn1c(-c2cc(=O)c(O)c[nH]2)nn(S(=O)(=O)NC(=O)N2C[C@H](NC(=O)/C(=N\OC(C)(C)C(=O)[O-])c3csc(N)n3)C2=O)c1=O.C[C@H](O)Cn1c(-c2cc(=O)c(O)c[nH]2)nn(S(=O)(=O)NC(=O)N2C[C@H](NC(=O)/C(=N\OC(C)(C)C(=O)[O-])c3csc(N)n3)C2=O)c1=O.[Na+].[Na+] [Example 7, 2-({[(1Z)-1-(2-amino-1,3-thiazol-4-yl)-2-({(3S)-1-[({3-(5-hydroxy-4-oxo-1,4-dihydropyridin-2-yl)-4-[(2S)-2-hydroxypropyl]-5-oxo-4,5-dihydro-1H-1,2,4-triazol-1-yl}sulfonyl)carbamoyl]-2-oxoazetidin-3-yl}amino)-2-oxoethylidene]amino}oxy)-2-methylpropanoic acid, disodium salt] | 250 | 125 | 1000 | 15.7 (8.45-22.96) mg/kg | significantly more efficacious relative to Comparative Example A | 250 | – | – | – |
| CC(C)(O/N=C(\C(=O)N[C@H]1CN(C(=O)NS(=O)(=O)n2nc(-c3cc(=O)c(O)c[nH]3)n(C[C@H](O)CO)c2=O)C1=O)c1csc(N)n1)C(=O)[O-].CC(C)(O/N=C(\C(=O)N[C@H]1CN(C(=O)NS(=O)(=O)n2nc(-c3cc(=O)c(O)c[nH]3)n(C[C@H](O)CO)c2=O)C1=O)c1csc(N)n1)C(=O)[O-].[Na+].[Na+] [Example 5, 2-({[(1Z)-1-(2-amino-1,3-thiazol-4-yl)-2-({(3S)-1-[({4-[(2S)-2,3-dihydroxypropyl]-3-(5-hydroxy-4-oxo-1,4-dihydropyridin-2-yl)-5-oxo-4,5-dihydro-1H-1,2,4-triazol-1-yl}sulfonyl)carbamoyl]-2-oxoazetidin-3-yl}amino)-2-oxoethylidene]amino}oxy)-2-methylpropanoic acid, disodium salt] | 250 | 125 | 500 | 18.6 (8.94-28.29) mg/kg | significantly more efficacious relative to Comparative Example A | 500 | – | – | – |
| CO/N=C(\C(=O)N[C@@H]1C(=O)N2C(C(=O)[O-])=C(C[N+]3(C)CCCC3)CS[C@H]12)c1csc(N)n1 [Cefepime, reference compound] | – | – | – | – | – | – | 2000 (≈ 4160 µM) | 22 | – |
| CC(C)(O/N=C(\C(=O)N[C@H]1CN(C(=O)NS(=O)(=O)n2nc(-c3cc(=O)c(O)c[nH]3)n(CCN3CCCC3)c2=O)C1=O)c1csc(N)n1)C(=O)O [Example 11, 2-({[(1Z)-1-(2-amino-1,3-thiazol-4-yl)-2-{[(3S)-1-({[3-(5-hydroxy-4-oxo-1,4-dihydropyridin-2-yl)-5-oxo-4-(2-pyrrolidin-1-ylethyl)-4,5-dihydro-1H-1,2,4-triazol-1-yl]sulfonyl}carbamoyl)-2-oxoazetidin-3-yl]amino}-2-oxoethylidene]amino}oxy)-2-methylpropanoic acid] | – | – | – | – | – | – | – | – | 16000 (≈ 21700 µM) |
| CC(C)(O/N=C(\C(=O)N[C@H]1CN(C(=O)NS(=O)(=O)n2nc(-c3cc(=O)c(O)c[nH]3)n(C[C@@H](O)CO)c2=O)C1=O)c1csc(N)n1)C(=O)[O-].CC(C)(O/N=C(\C(=O)N[C@H]1CN(C(=O)NS(=O)(=O)n2nc(-c3cc(=O)c(O)c[nH]3)n(C[C@@H](O)CO)c2=O)C1=O)c1csc(N)n1)C(=O)[O-].[Na+].[Na+] [Example 3, 2-({[(1Z)-1-(2-amino-1,3-thiazol-4-yl)-2-({(3S)-1-[({4-[(2R)-2,3-dihydroxypropyl]-3-(5-hydroxy-4-oxo-1,4-dihydropyridin-2-yl)-5-oxo-4,5-dihydro-1H-1,2,4-triazol-1-yl}sulfonyl)carbamoyl]-2-oxoazetidin-3-yl}amino)-2-oxoethylidene]amino}oxy)-2-methylpropanoic acid, disodium salt] | 500 | 125 | 500 | 20.6 (8.7-32.52) mg/kg | significantly more efficacious relative to Comparative Example A | 500 | – | – | – |
| CCn1c(-c2cc(=O)c(O)c[nH]2)nn(S(=O)(=O)NC(=O)N2C[C@H](NC(=O)C(=NOC(C)(C)C(=O)O)c3csc(N)n3)C2=O)c1=O (stereo in doubt) [Example 1, 2-({[(1E)-1-(2-amino-1,3-thiazol-4-yl)-2-{[(3S)-1-({[4-ethyl-3-(5-hydroxy-4-oxo-1,4-dihydropyridin-2-yl)-5-oxo-4,5-dihydro-1H-1,2,4-triazol-1-yl]sulfonyl}carbamoyl)-2-oxoazetidin-3-yl]amino}-2-oxoethylidene]amino}oxy)-2-methylpropanoic acid] | – | – | – | – | – | – | – | – | < 62.5 |
| CC(C)(O/N=C(\C(=O)N[C@H]1CN(C(=O)NS(=O)(=O)n2nc(-c3cc(=O)c(O)c[nH]3)n(CC(O)CO)c2=O)C1=O)c1csc(N)n1)C(=O)O (stereo partly drawn) [Example 10, 2-({[(1Z)-1-(2-amino-1,3-thiazol-4-yl)-2-{[(3S)-1-({[4-(2,3-dihydroxypropyl)-3-(5-hydroxy-4-oxo-1,4-dihydropyridin-2-yl)-5-oxo-4,5-dihydro-1H-1,2,4-triazol-1-yl]sulfonyl}carbamoyl)-2-oxoazetidin-3-yl]amino}-2-oxoethylidene]amino}oxy)-2-methylpropanoic acid] | – | – | – | – | – | – | – | – | 250 (≈ 350 µM) |
| C[C@@H](O)[C@H]1C(=O)N2C(C(=O)O)=C(SCCN=CN)C[C@H]12 [Imipenem, reference compound] | – | – | – | – | – | – | 500 (≈ 1670 µM) | 1.04 | – |
| CN(C)CCn1c(-c2cc(=O)c(O)c[nH]2)nn(S(=O)(=O)NC(=O)N2C[C@H](NC(=O)/C(=N\OC(C)(C)C(=O)O)c3csc(N)n3)C2=O)c1=O [Example 2, 2-({[(1Z)-1-(2-amino-1,3-thiazol-4-yl)-2-({(3S)-1-[({4-[2-(dimethylamino)ethyl]-3-(5-hydroxy-4-oxo-1,4-dihydropyridin-2-yl)-5-oxo-4,5-dihydro-1H-1,2,4-triazol-1-yl}sulfonyl)carbamoyl]-2-oxoazetidin-3-yl}amino)-2-oxoethylidene]amino}oxy)-2-methylpropanoic acid] | – | – | – | – | – | – | – | – | 188 (≈ 264 µM) |
| 2-({[(1Z)-2-{[(3S)-1-({[4-(2-amino-2-oxoethyl)-3-(5-hydroxy-4-oxo-1,4-dihydropyridin-2-yl)-5-oxo-4,5-dihydro-1H-1,2,4-triazol-1-yl]sulfonyl}carbamoyl)-2-oxoazetidin-3-yl]amino}-1-(2-amino-1,3-thiazol-4-yl)-2-oxoethylidene]amino}oxy)-2-methylpropanoic acid, disodium salt [Example 4] | 500 | 125 | 1000 | 25.0 (24.8-25.2) mg/kg | significantly more efficacious relative to Comparative Example A | 1000 | – | – | – |
| CCCn1c(-c2cc(=O)c(O)c[nH]2)nn(S(=O)(=O)NC(=O)N2C[C@H](NC(=O)/C(=N\OC(C)(C)C(=O)O)c3csc(N)n3)C2=O)c1=O [Example 9, 2-({[(1Z)-1-(2-amino-1,3-thiazol-4-yl)-2-{[(3S)-1-({[3-(5-hydroxy-4-oxo-1,4-dihydropyridin-2-yl)-5-oxo-4-propyl-4,5-dihydro-1H-1,2,4-triazol-1-yl]sulfonyl}carbamoyl)-2-oxoazetidin-3-yl]amino}-2-oxoethylidene]amino}oxy)-2-methylpropanoic acid] | – | – | – | – | – | – | – | – | < 62.5 |
| COCCn1c(-c2cc(=O)c(O)c[nH]2)nn(S(=O)(=O)NC(=O)N2C[C@H](NC(=O)/C(=N\OC(C)(C)C(=O)O)c3csc(N)n3)C2=O)c1=O [Example 15, 2-({[(1Z)-1-(2-amino-1,3-thiazol-4-yl)-2-{[(3S)-1-({[3-(5-hydroxy-4-oxo-1,4-dihydropyridin-2-yl)-4-(2-methoxyethyl)-5-oxo-4,5-dihydro-1H-1,2,4-triazol-1-yl]sulfonyl}carbamoyl)-2-oxoazetidin-3-yl]amino}-2-oxoethylidene]amino}oxy)-2-methylpropanoic acid, disodium salt] | – | – | – | – | – | – | 500 | >70.8 | – |
